Patent US10174002B2, “Pyridine derivatives as CFTR modulators” (NuBridge BioSciences, priority 2015, dated 2019)

Biological target: T1, ΔF508 mutant CFTR (Homo sapiens, UniProt P13569, DEL508-508)
T1 construct: expressed in transfected cells; host or cells: Fischer rat thyroid (FRT) cells, co-expressing the halide-sensitive YFP-H148Q/I152L
Assay: Fluorescence Assay of ΔF508 mutant CFTR activity (halide-sensitive YFP quenching by iodide influx in FRT cells)
Assay type: cell-based
Parameters: key: fold of mean activity with forskolin alone (I− quenching rate)
Settings: test compounds 20 μM with forskolin 20 μM, 20 min; FRT cells expressing ΔF508-CFTR and YFP-H148Q/I152L, incubated at 27° C. 20-24 h; rate of fluorescence quenching by I−, normalized to mean activity with forskolin alone
From the text: The ΔF508 mutant CFTR activities of the CFTR modulators are detected using the Fluorescence Assay developed by Pedemonte (Pedemonte N., et al., Antihypertensive 1,4-dihydropyridines as correctors of the cystic fibrosis transmembrane conductance regulator channel gating defect caused by cystic fibrosis mutations, Mol. Pharmacol., 2005, 68, 1736-1746).
Fischer rat thyroid (FRT) cells, stably transfected with ΔF508 were retransfected with the YFP-H148Q/I152L fluorescent protein. The cells were plated (100,000 cells/well) on black 96-well microplates with clear plastic bottom (Corning Life Sciences, Acton, Mass.).
The 96-well microplates containing FRT cells expressing F508-CFTR and the halide-sensitive YFP were incubated at 27° C. for 20 to 24 h to allow rescue of the mutant protein to the plasma membrane. After incubation, cells were washed with PBS (containing 137 mM NaCl, 2.7 mM KCl, 8.1 mM Na2HPO4, 1.5 mM KH2PO4, 1 mM CaCl2, and 0.5 mM MgCl2) and stimulated for 20 min with forskolin (20 μM) and test compounds (20 μM) in a final volume of 60 μl. Microplates were then transferred to a microplate reader for CFTR activity determination. Each assay consisted of a continuous 14-s fluorescence reading (5 points per second) with 2 s before and 12 s after injection of 165 μl of an iodide-containing solution (PBS with Cl^− replaced by I^−). Final iodide concentration in the wells was 100 mM. […] To determine I^− influx rate, the final 11 s of the data for each well were fitted with an exponential function to extrapolate initial slope. CFTR activity was determined by measuring the rate of fluorescence quenching induced by extracellular addition of I^−. Data are normalized to the mean activity measured in the presence of forskolin alone.

T1 sequence (P13569 with tags, fused parts or gaps DEL508-508): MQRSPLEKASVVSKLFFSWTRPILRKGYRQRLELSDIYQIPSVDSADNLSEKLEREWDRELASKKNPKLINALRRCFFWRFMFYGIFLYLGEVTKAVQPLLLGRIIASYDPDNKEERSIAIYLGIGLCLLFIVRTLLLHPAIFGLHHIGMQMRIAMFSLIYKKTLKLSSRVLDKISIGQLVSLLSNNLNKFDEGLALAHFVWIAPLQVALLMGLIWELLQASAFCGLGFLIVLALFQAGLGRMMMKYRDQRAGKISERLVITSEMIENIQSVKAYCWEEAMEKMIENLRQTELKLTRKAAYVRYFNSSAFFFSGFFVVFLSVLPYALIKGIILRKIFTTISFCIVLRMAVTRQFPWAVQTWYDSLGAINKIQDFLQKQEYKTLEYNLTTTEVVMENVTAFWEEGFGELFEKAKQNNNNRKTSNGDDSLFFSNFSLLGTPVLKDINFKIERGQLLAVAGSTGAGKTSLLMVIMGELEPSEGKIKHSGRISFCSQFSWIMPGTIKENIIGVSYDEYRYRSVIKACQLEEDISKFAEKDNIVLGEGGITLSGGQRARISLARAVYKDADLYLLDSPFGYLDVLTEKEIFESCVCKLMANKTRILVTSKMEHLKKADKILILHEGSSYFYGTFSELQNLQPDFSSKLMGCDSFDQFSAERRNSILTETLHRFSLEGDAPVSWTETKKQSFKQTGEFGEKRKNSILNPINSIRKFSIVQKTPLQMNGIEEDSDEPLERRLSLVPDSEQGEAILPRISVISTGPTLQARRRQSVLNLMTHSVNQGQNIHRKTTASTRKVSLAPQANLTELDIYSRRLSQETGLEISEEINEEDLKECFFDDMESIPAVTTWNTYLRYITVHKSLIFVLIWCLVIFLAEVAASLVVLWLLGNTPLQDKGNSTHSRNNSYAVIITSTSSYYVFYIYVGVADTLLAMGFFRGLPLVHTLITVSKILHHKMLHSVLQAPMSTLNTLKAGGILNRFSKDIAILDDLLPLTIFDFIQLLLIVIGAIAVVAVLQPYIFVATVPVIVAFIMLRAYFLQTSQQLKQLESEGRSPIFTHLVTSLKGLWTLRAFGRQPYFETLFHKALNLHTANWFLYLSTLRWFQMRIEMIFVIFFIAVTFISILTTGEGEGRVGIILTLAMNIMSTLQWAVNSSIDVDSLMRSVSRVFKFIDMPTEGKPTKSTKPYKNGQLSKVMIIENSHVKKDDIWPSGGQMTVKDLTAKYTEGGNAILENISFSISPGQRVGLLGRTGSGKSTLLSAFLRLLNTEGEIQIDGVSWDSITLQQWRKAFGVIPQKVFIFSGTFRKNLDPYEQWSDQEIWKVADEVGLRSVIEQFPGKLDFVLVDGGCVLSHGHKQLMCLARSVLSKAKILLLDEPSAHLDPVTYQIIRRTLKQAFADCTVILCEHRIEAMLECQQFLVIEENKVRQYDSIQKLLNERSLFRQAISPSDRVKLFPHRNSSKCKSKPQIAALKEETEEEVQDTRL

Row | Structure (SMILES) | CFTR Activity
1 | Cl.NCC(CCl)COc1ccncc1NC(=O)c1nc(-c2c(F)cccc2F)c(F)cc1N (stereo not shown) [Example 34, 3-amino-N-(4-(3-amino-2-(chloromethyl)propoxy)pyridin-3-yl)-6-(2,6-difluorophenyl)-5-fluoropicolinamide hydrochloride] | 2.3
2 | Cl.Nc1cc(F)c(-c2c(F)cccc2F)nc1C(=O)Nc1cnccc1OCC1CCCNC1 (stereo not shown) [Example 35, 3-amino-6-(2,6-difluorophenyl)-5-fluoro-N-(4-(piperidin-3-ylmethoxy)pyridin-3-yl)picolinamide hydrochloride] | 2.1
3 | Cl.NCCCCOc1ccncc1NC(=O)c1nc(-c2c(F)cccc2F)c(F)cc1N [Example 36, 3-amino-N-(4-(4-aminobutoxy)pyridin-3-yl)-6-(2,6-difluorophenyl)-5-fluoropicolinamide hydrochloride] | 2.3
4 | Cl.Nc1cc(F)c(-c2c(F)cccc2F)nc1C(=O)Nc1cnccc1OC1CCCC(N)C1 (stereo not shown) [Example 37, 3-amino-N-(4-((3-aminocyclohexyl)oxy)pyridin-3-yl)-6-(2,6-difluorophenyl)-5-fluoropicolinamide hydrochloride] | 4.8
5 | Cl.Nc1cc(F)c(-c2ccccc2)nc1C(=O)Nc1cnccc1OC1CCNC1 (stereo not shown) [Example 38, 3-amino-5-fluoro-6-phenyl-N-(4-(pyrrolidin-3-yloxy)pyridin-3-yl)picolinamide hydrochloride] | 1.7
6 | Cl.O=C(Nc1cnccc1OC1CCNCC1)c1ccc(F)c(-c2ccncc2)n1 [Example 39, 3-fluoro-N-(4-(piperidin-4-yloxy)pyridin-3-yl)-[2,4′-bipyridine]-6-carboxamide hydrochloride] | 1.0
7 | Cl.O=C(Nc1cnccc1OC1CCCNCC1)c1nc(-c2c(F)cccc2F)ccc1F (stereo not shown) [Example 40, N-(4-(azepan-4-yloxy)pyridin-3-yl)-6-(2,6-difluorophenyl)-3-fluoropicolinamide hydrochloride] | 1.8
8 | COc1cccc(F)c1-c1nc(C(=O)Nc2cnccc2OC2CCCNCC2)ccc1F.Cl (stereo not shown) [Example 41, N-(4-(azepan-4-yloxy)pyridin-3-yl)-5-fluoro-6-(2-fluoro-6-methoxyphenyl)picolinamide hydrochloride] | 2.0
9 | Cl.O=C(Nc1cnccc1OC1CCCNCC1)c1ccc(C(F)(F)F)c(-c2c(F)cccc2F)n1 (stereo not shown) [Example 42, N-(4-(azepan-4-yloxy)pyridin-3-yl)-6-(2,6-difluorophenyl)-5-(trifluoromethyl)picolinamide hydrochloride] | 2.7
10 | Cl.O=C(Nc1cnccc1OCC1CCNCC1)c1ccc(C(F)(F)F)c(-c2c(F)cccc2F)n1 [Example 43, 6-(2,6-difluorophenyl)-N-(4-(piperidin-4-ylmethoxy)pyridin-3-yl)-5-(trifluoromethyl)picolinamide hydrochloride] | 2.3
11 | Cl.O=C(Nc1cnccc1OCC1CNC1)c1ccc(C(F)(F)F)c(-c2c(F)cccc2F)n1 [Example 44, N-(4-(azetidin-3-ylmethoxy)pyridin-3-yl)-6-(2,6-difluorophenyl)-5-(trifluoromethyl)picolinamide hydrochloride] | 2.1
12 | Cl.O=C(Nc1cnccc1OC1CCNCC1)c1ccc(C(F)(F)F)c(-c2c(F)cccc2F)n1 [Example 45, 6-(2,6-difluorophenyl)-N-(4-(piperidin-4-yloxy)pyridin-3-yl)-5-(trifluoromethyl)picolinamide hydrochloride] | 2.7
13 | Cl.N[C@H]1CC[C@H](Oc2ccncc2NC(=O)c2ccc(C(F)(F)F)c(-c3c(F)cccc3F)n2)CC1 [Example 46, N-(4-(((1r,4r)-4-aminocyclohexyl)oxy)pyridin-3-yl)-6-(2,6-difluorophenyl)-5-(trifluoromethyl)picolinamide hydrochloride] | 3.1
14 | O=C(Nc1cnccc1OCC1CCOCC1)c1ccc(C(F)(F)F)c(-c2c(F)cccc2F)n1 [Example 47, 6-(2,6-difluorophenyl)-N-(4-((tetrahydro-2H-pyran-4-yl)methoxy)pyridin-3-yl)-5-(trifluoromethyl)picolinamide] | 0.4
15 | Cl.Nc1cc(C(F)(F)F)c(-c2c(F)cccc2F)nc1C(=O)Nc1cnccc1OC1CCCNCC1 (stereo not shown) [Example 48, 3-amino-N-(4-(azepan-4-yloxy)pyridin-3-yl)-6-(2,6-difluorophenyl)-5-(trifluoromethyl)picolinamide hydrochloride] | 5.2
16 | Cl.Nc1cc(C(F)(F)F)c(-c2c(F)cccc2F)nc1C(=O)Nc1cnccc1OCC1CCNCC1 [Example 49, 3-amino-6-(2,6-difluorophenyl)-N-(4-(piperidin-4-ylmethoxy)pyridin-3-yl)-5-(trifluoromethyl)picolinamide hydrochloride] | 4.3
17 | Cl.Nc1cc(C(F)(F)F)c(-c2c(F)cccc2F)nc1C(=O)Nc1cnccc1OCC1CNC1 [Example 50, 3-amino-N-(4-(azetidin-3-ylmethoxy)pyridin-3-yl)-6-(2,6-difluorophenyl)-5-(trifluoromethyl)picolinamide hydrochloride] | 2.7
18 | Cl.Nc1cc(C(F)(F)F)c(-c2c(F)cccc2F)nc1C(=O)Nc1cnccc1OC1CCNCC1 [Example 51, 3-amino-6-(2,6-difluorophenyl)-N-(4-(piperidin-4-yloxy)pyridin-3-yl)-5-(trifluoromethyl)picolinamide hydrochloride] | 4.8
19 | Cl.Nc1cc(C(F)(F)F)c(-c2c(F)cccc2F)nc1C(=O)Nc1cnccc1O[C@H]1CC[C@H](N)CC1 [Example 52] | 5.4
20 | Cl.Nc1cc(C(F)(F)F)c(-c2ccccc2)nc1C(=O)Nc1cnccc1OC1CCNC1 (stereo not shown) [Example 53, 3-amino-6-phenyl-N-(4-(pyrrolidin-3-yloxy)pyridin-3-yl)-5-(trifluoromethyl)picolinamide hydrochloride] | 2.5
21 | Cl.NCC(CCl)COc1ccncc1NC(=O)c1ccc(C(F)(F)F)c(-c2c(F)cccc2F)n1 (stereo not shown) [Example 54, N-(4-(3-amino-2-(chloromethyl)propoxy)pyridin-3-yl)-6-(2,6-difluorophenyl)-5-(trifluoromethyl)picolinamide hydrochloride] | 1.8
22 | Cl.NCC(CCl)COc1ccncc1NC(=O)c1nc(-c2c(F)cccc2F)c(C(F)(F)F)cc1N (stereo not shown) [Example 55, 3-amino-N-(4-(3-amino-2-(chloromethyl)propoxy)pyridin-3-yl)-6-(2,6-difluorophenyl)-5-(trifluoromethyl)picolinamide hydrochloride] | 5.5
23 | Cl.NCC(CO)COc1ccncc1NC(=O)c1ccc(F)c(-c2c(F)cccc2F)n1 (stereo not shown) [Example 56, N-(4-(3-amino-2-(hydroxymethyl)propoxy)pyridin-3-yl)-6-(2,6-difluorophenyl)-5-fluoropicolinamide hydrochloride] | 2.4
24 | Cl.NCC(CO)COc1ccncc1NC(=O)c1nc(-c2c(F)cccc2F)c(F)cc1N (stereo not shown) [Example 57, 3-amino-N-(4-(3-amino-2-(hydroxymethyl)propoxy)pyridin-3-yl)-6-(2,6-difluorophenyl)-5-fluoropicolinamide hydrochloride] | 2.1
25 | Cl.NCC(CO)COc1ccncc1NC(=O)c1ccc(C(F)(F)F)c(-c2c(F)cccc2F)n1 (stereo not shown) [Example 58, N-(4-(3-amino-2-(hydroxymethyl)propoxy)pyridin-3-yl)-6-(2,6-difluorophenyl)-5-(trifluoromethyl)picolinamide hydrochloride] | 2.6
26 | Cl.NCC(CO)COc1ccncc1NC(=O)c1nc(-c2c(F)cccc2F)c(C(F)(F)F)cc1N (stereo not shown) [Example 59, 3-amino-N-(4-(3-amino-2-(hydroxymethyl)propoxy)pyridin-3-yl)-6-(2,6-difluorophenyl)-5-(trifluoromethyl)picolinamide hydrochloride] | 3.1
27 | Cl.NC1CCCC(Oc2ccncc2NC(=O)c2ccc(C(F)(F)F)c(-c3c(F)cccc3F)n2)C1 (stereo not shown) [Example 60, N-(4-((3-aminocyclohexyl)oxy)pyridin-3-yl)-6-(2,6-difluorophenyl)-5-(trifluoromethyl)picolinamide hydrochloride] | 5.7
28 | Cl.Nc1cc(C(F)(F)F)c(-c2c(F)cccc2F)nc1C(=O)Nc1cnccc1OC1CCCC(N)C1 (stereo not shown) [Example 61, 3-amino-N-(4-((3-aminocyclohexyl)oxy)pyridin-3-yl)-6-(2,6-difluorophenyl)-5-(trifluoromethyl)picolinamide hydrochloride] | 6.1
